One data set deals with Vero E6 cells.
Experiment: not given
Conditions: African green monkey.
For `Nc1ncnc2c1ncn2[C@@H]1O[C@H](CO)[C@@H](O)[C@@H]1O` [Vidarabine, Arabinosyladenine], the CC50 was > 100 µM.
On to `CC(C)C(=O)OC[C@H]1O[C@@H](n2ccc(NO)nc2=O)[C@H](O)[C@@H]1O` [Molnupiravir, molnupiravir], for which the CC50 was > 100 µM.
As to `OC[C@H]1O[C@@H](n2cnc3c(N[C@@H]4CCOC4)ncnc32)[C@H](O)[C@@H]1O` [Tecadenoson, tecadenoson], the CC50 is > 100 µM.
`CC(C)Nc1nc2cc(Cl)c(Cl)cc2n1[C@H]1O[C@@H](CO)[C@H](O)[C@@H]1O` [Maribavir, maribavir]: the CC50 is > 100 µM.
Same read-out and setting: for `COc1nc(N)nc2c1ncn2[C@@H]1O[C@H](CO)[C@@H](O)[C@@H]1O` [Nelarabine, nelarabine] the value was > 100 µM; for `O=c1[nH]cnc2c([C@@H]3N[C@H](CO)[C@@H](O)[C@H]3O)c[nH]c12` [Forodesine, forodesine], > 100 µM.
With `CC(C)=CCNc1ncnc2c1ncn2[C@@H]1O[C@H](CO)[C@@H](O)[C@H]1O` [Riboprine, N^6-(2-Isopentenyl)adenosine], the CC50 is > 100 µM.

Test system in the next data set: not listed separately
Put plainly: in vitro. Conditions: African green monkey.
Regarding `CCC(CC)COC(=O)[C@H](C)N[P@](=O)(OC[C@H]1O[C@@](C#N)(c2ccc3c(N)ncnn23)[C@H](O)[C@@H]1O)Oc1ccccc1` [Remdesivir, remdesivir], the CC50 was > 100 µM.

The values are drawn from PMC9797896 (Medicinal Chemistry Research, 2022).
